Data taken from patent publication US20040248844A1, “Method for the treatment or prevention of Flavivirus infections using nucleoside analogues” (priority 2000, published 2004).

molecular target: T1, HCV RNA-dependent RNA polymerase (NS5B protein) (Hepatitis C virus genotype 1b, UniProt P26663); test: HCV RNA-dependent RNA polymerase assay (in vitro RdRp assay, heteropolymeric RNA template); assay type: biochemical, HCV-Bk strain; settings: natural NTP substrates of purified NS5B in the RdRp assay
T1 construct: The cDNA encoding the entire NS5B protein of HCV-Bk strain, genotype 1b; initiator Met (ATG added before the NS5B coding region) (N); made in house; host or cells: Sf9 insect cells, recombinant baculovirus (pBlueBacII, BacNS5B)
T1 sequence (P26663 2420-3010): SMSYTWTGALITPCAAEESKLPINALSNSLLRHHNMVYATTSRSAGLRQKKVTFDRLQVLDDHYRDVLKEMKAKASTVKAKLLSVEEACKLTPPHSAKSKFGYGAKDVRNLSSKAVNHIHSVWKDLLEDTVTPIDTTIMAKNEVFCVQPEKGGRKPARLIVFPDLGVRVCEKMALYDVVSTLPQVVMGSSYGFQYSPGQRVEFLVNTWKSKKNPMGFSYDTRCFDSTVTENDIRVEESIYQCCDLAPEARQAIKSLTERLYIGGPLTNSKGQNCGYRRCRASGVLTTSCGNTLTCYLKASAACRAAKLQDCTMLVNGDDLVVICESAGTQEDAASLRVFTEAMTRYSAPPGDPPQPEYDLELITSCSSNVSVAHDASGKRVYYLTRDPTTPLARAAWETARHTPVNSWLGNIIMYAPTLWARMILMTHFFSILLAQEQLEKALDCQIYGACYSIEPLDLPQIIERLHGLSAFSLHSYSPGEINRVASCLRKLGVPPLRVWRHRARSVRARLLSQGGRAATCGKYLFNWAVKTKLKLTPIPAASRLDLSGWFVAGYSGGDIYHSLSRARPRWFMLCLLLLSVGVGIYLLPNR
Protocol: Compounds were evaluated using an in vitro polymerase assay containing purified recombinant HCV RNA-dependent RNA polymerase (NS5B protein). HCV NS5B was expressed in insect cells using a recombinant baculovirus as vector. The experimental procedures used for the cloning, expression and purification of the HCV NS5B protein are described below. Following are details of the RNA-dependent RNA polymerase assays used to test the compounds.
The cDNA encoding the entire NS5B protein of HCV-Bk strain, genotype 1b, was amplified by PCR using a plasmid containing a cDNA version of the full-length HCV genome as template. The oligonucleotides used to amplify this HCV region were designed to introduce a NheI site followed by an ATG at the 5′ end of the NS5B coding region as well as a BamHI site at the 3′end immediately downstream of the translation stop codon. The amplified sequence, of 1.8 kb, was digested with NheI and BamHI and ligated to a predigested pBlueBacII plasmid (Invitrogen). The resulting recombinant plasmid was designated pBac/NS5B. Sf9 cells were co-transfected with 3 μg of pBac/NS5B, together with 1 μg of linearized baculovirus DNA (Invitrogen), as described in the manufacturer's protocol. Following two rounds of plaque purification, an NS5B-recombinant baculovirus, BacNS5B, was isolated. The presence of the recombinant NS5B protein was determined by western blot analysis (Harlow and Lane, 1988) of BacNS5B-infected Sf9 cells, using a HCV NS5B specific rabbit polyclonal antiserum (anti-NS5B). Infections of Sf9 cells with this plaque purified virus were performed in one-liter spinner flasks at a cell density of 1.2×10^6 cells/ml and a multiplicity of infection of 5.
Sf9 cells were infected as described above. Sixty hours post-infection, cells were harvested then washed twice with phosphate buffer saline (PBS). Total proteins were solubilized as described in Lohmann et al. […] with some modifications. In brief, proteins were extracted in three steps, S1, S2, S3, using lysis buffers (LB) I, LB II and LB III (Lohmann et al, 1997). The composition of LBII was modified to contain 0.1% triton X-100 and 150 mM NaCl to reduce the amount of solubilized NS5B protein at this step. In addition, sonication of cell extracts was avoided throughout the protocol to preserve the integrity of the protein structure.
Soluble NS5B protein in the S3 fraction was diluted to lower the NaCl concentration to 300 mM, then it incubated batchwise with DEAE sepharose beads (Amersham-Pharmacia) for 2 hrs at […], as described by Behrens et al. (1989). Unbound material was cleared by centrifugation for 15 min at 4° C., at 25 000 rpm using a SW41 rotor (Beckman). The supernatant was further diluted to lower the NaCl concentration to 200 mM and subsequently loaded, with a flow rate of 1 ml/min, on a 5 ml HiTrap® heparin column (Amersham-Pharmacia) connected to an FPLC® system (Amersham-Pharmacia). Bound proteins were eluted in 1 ml fractions, using a continuous NaCl gradient of 0.2 to 1 M, over a 25 ml volume. NS5B-containing fractions were identified by sodium dodecyl sulfate polyacrylamide gel electrophoresis (SDS-PAGE), followed by western blotting using the anti-NS5B antiserum at a dilution of 1:2000. Positive fractions were pooled and the elution buffer was exchanged against a 50 mM NaPO4 pH 7.0, 20% glycerol, 0.5% triton X-100 and 10 mM DTT, using a PD-10 column (Amersham-Pharmacia). The sample was then loaded onto a 1 ml HiTrap® SP column (Amersham-Pharmacia), with a flow rate of 0.1 ml/min. Bound proteins were eluted using a continuous 0 to 1 M NaCl gradient over a 15 ml volume. Eluted fractions were analyzed by SDS-PAGE and western blotting. Alternatively, proteins were visualized, following SDS-PAGE, by silver staining using the Silver Stain Plus kit (BiORad) as described by the manufacturer.
RdRp assays were conducted using in vitro transcribed heteropolymeric RNA templates. […]

| Molecule | measured Kms for the four substrates [µM] |
| --- | --- |
| O=c1ccn([C@@H]2O[C@H](COP(=O)(O)OP(=O)(O)OP(=O)(O)O)[C@@H](O)[C@H]2O)c(=O)[nH]1 [UTP, reference compound] | 1.2 |
| Nc1ncnc2c1ncn2[C@@H]1O[C@H](COP(=O)(O)OP(=O)(O)OP(=O)(O)O)[C@@H](O)[C@H]1O [ATP, reference compound] | 18 |
| Nc1nc2c(ncn2[C@@H]2O[C@H](COP(=O)(O)OP(=O)(O)OP(=O)(O)O)[C@@H](O)[C@H]2O)c(=O)[nH]1 [GTP, reference compound] | 0.5 |
| Nc1ccn([C@@H]2O[C@H](COP(=O)(O)OP(=O)(O)OP(=O)(O)O)[C@@H](O)[C@H]2O)c(=O)n1 [CTP, reference compound] | 0.5 |

same assay, conditions: purified recombinant NS5B 200 ng; competing NTP at twice Km, other NTPs 100 μM; 2 h at 22° C.; triphosphate form tested

| Molecule | IC50 [nM] |
| --- | --- |
| O=c1[nH]c(=O)n([C@@H]2O[C@H](COP(=O)(O)OP(=O)(O)OP(=O)(O)O)C[C@H]2O)cc1Cl [COMPOUND#28, 5-Chloro-3′-deoxyuridine-5′triphosphate] | 2100 |
| O=c1ccn([C@@H]2O[C@H](COP(=O)(O)OP(=O)(O)OP(=O)(O)O)C[C@H]2O)c(=O)[nH]1 [COMPOUND#6, 3′-deoxyuridine-5′triphosphate] | 260 |
| Nc1nc2c(ncn2[C@@H]2O[C@H](COP(=O)(O)OP(=O)(O)OP(=O)(O)O)C[C@H]2O)c(=O)[nH]1 [COMPOUND#12, 3′-deoxyguanosine-5′triphosphate] | 48 |
| Nc1ccn([C@@H]2O[C@H](COP(=O)(O)OP(=O)(O)OP(=O)(O)O)[C@@H](F)[C@H]2O)c(=O)n1 [COMPOUND#24, 3′-fluoro-3′-deoxycytidine-5′triphosphate] | 55 |
| CC(=O)Nc1nc2c(ncn2[C@@H]2O[C@H](COP(=O)(O)OP(=O)(O)OP(=O)(O)O)C[C@H]2O)c(=O)[nH]1 [COMPOUND#14, 2-N-acetyl-3′-deoxyguanosine-5′triphosphate] | 3100 |
| Nc1nc(=O)n([C@@H]2O[C@H](COP(=O)(O)OP(=O)(O)OP(=O)(O)O)C[C@H]2O)cc1Cl [COMPOUND#20, 5- = Chloro-3′-deoxycytidine-5′triphosphate] | 180 |
| Nc1ccn([C@@H]2O[C@H](COP(=O)(O)OP(=O)(O)OP(=O)(O)O)C[C@H]2O)c(=O)n1 [COMPOUND#2, 3′-deoxycytidine-5′triphosphate] | 36 |
| Nc1nc(O)c2ncn([C@@H]3O[C@H](COP(=O)(O)OP(=O)(O)OP(=O)(O)O)[C@@H](F)[C@H]3O)c2n1 [COMPOUND#22, 3′-fluoro-3′-deoxyguanosine-5′triphosphate] | 120 |
| O=c1[nH]c(=O)n([C@@H]2O[C@H](COP(=O)(O)OP(=O)(O)OP(=O)(O)O)C[C@H]2O)cc1Br [COMPOUND#30, 5-Bromo-3′-deoxyuridine-5′triphosphate] | 2900 |
| Cc1cn([C@@H]2O[C@H](COP(=O)(O)OP(=O)(O)OP(=O)(O)O)C[C@H]2O)c(=O)nc1N [COMPOUND#16, 5-Methyl-3′-deoxycytidine-5′triphosphate] | 360 |
| Nc1nc(=O)n([C@@H]2O[C@H](COP(=O)(O)OP(=O)(O)OP(=O)(O)O)C[C@H]2O)cc1I [COMPQUND#26, 5- = Iodp-3′-deoxycytidine-5′triphosphate] | 910 |
| [N-]=[N+]=N[C@H]1[C@@H](O)[C@H](n2ccc(N)nc2=O)O[C@@H]1COP(=O)(O)OP(=O)(O)OP(=O)(O)O [COMPOUND#54, 3′-azido-3′-deoxycytidine 5′triphosphate] | 9000 |
| Cc1cn([C@H]2CC[C@@H](COP(=O)(O)OP(=O)(O)OP(=O)(O)O)O2)c(=O)[nH]c1=O [COMPOUND#10, 3′-deoxythymidine-5′triphosphate] | 6400 |
| O=c1[nH]c(=O)n([C@@H]2O[C@H](COP(=O)(O)OP(=O)(O)OP(=O)(O)O)C[C@H]2O)cc1F [COMPOUND#8, 5-Fluoro-3′-deoxyuridine-5′triphosphate] | 1980 |
| Nc1nc(=O)n([C@@H]2O[C@H](COP(=O)(O)OP(=O)(O)OP(=O)(O)O)C[C@H]2O)cc1F [COMPOUND#4, 5-Fluoro-3′-deoxycytidine-5′triphosphate] | 300 |
| Nc1nc(=O)n([C@@H]2O[C@H](COP(=O)(O)OP(=O)(O)OP(=O)(O)O)C[C@H]2O)cc1I [COMPOUND#18, 5-Iodo-3′-deoxycytidine-5′triphosphate] | 6880 |
| 6-Chloro- 3′-deoxyguanosine- 5′triphosphate [COMPOUND#32] | 6800 |
